Experimental data reported in ChEMBL document CHEMBL5465560, “Selectivity Literature for EUbOPEN Chemogenomic Library” (2024).

How the values were obtained:
[1] = molecular target: Serine/threonine-protein kinase 32C (Homo sapiens) (UniProt Q86UX6); assay: Selectivity interaction (Ambit KINOMEscan and KiNATiv profiling in Jurkat cells) EUB0000090b STK32C; format: cell-based; conditions: at 1 µM
[2] = molecular target: Mitogen-activated protein kinase 6 (Homo sapiens) (UniProt Q16659); assay: Selectivity interaction (Ambit KINOMEscan and KiNATiv profiling in Jurkat cells) EUB0000090b MAPK6; format: cell-based; conditions: at 1 µM
[3] = molecular target: T1, Inhibitor of nuclear factor kappa-B kinase subunit alpha (Homo sapiens) (UniProt O15111); assay: Selectivity interaction (KinomeScan (DiscoverX)) EUB0000655a CHUK; conditions: at 10 µM
T1 sequence (whole entry): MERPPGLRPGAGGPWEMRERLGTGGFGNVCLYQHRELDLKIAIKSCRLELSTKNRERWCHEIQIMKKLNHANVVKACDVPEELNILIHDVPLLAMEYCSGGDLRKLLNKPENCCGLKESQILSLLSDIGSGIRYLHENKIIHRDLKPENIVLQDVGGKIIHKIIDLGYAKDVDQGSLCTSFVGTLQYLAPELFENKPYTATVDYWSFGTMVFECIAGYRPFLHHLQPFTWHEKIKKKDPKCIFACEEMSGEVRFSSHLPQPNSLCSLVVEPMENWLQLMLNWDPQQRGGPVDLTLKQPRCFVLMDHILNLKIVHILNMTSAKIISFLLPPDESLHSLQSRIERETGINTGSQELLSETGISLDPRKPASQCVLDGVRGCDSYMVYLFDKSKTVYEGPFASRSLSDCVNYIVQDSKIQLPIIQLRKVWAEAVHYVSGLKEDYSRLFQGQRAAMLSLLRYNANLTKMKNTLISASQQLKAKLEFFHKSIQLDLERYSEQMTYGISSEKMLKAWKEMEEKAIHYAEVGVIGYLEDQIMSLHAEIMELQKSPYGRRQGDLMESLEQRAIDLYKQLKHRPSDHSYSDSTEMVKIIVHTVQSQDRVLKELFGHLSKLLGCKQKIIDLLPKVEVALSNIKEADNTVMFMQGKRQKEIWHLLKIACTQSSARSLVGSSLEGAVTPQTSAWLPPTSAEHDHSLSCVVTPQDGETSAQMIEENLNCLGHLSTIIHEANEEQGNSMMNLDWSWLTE

[4] = molecular target: 5-hydroxytryptamine receptor 1E (Homo sapiens) (UniProt P28566); assay: Selectivity interaction (GPCR panel (PDSP screen)) EUB0001079a HTR1E; conditions: at 10 µM
[5] = molecular target: RAF proto-oncogene serine/threonine-protein kinase (Homo sapiens) (UniProt P04049); conditions: at 10 µM
[6] = molecular target: Serine/threonine-protein kinase 24 (Homo sapiens) (UniProt Q9Y6E0); assay: Selectivity interaction (ActivX KiNativ screen (kinase selectivity in THP-1 cell lysates)) EUB0000639a STK24; format: subcellular; conditions: lysate, at 5 µM
[7] = molecular target: Ribosomal protein S6 kinase alpha-2 (Homo sapiens) (UniProt Q15349); assay: Selectivity interaction (ActivX KiNativ screen (kinase selectivity in THP-1 cell lysates)) EUB0000639a RPS6KA2; format: subcellular; conditions: lysate
[8] = molecular target: Nuclear body protein SP140 (Homo sapiens) (UniProt Q13342); assay: Selectivity interaction (Bromodomain panel (DSF asssay)) EUB0000270b SP140
[9] = molecular target: Leucine-rich repeat serine/threonine-protein kinase 2 (Homo sapiens, UniProt Q5S007); assay: (§1) Selectivity interaction (KinomeScan (DiscoverX)) EUB0000229b LRRK2; conditions: at 10 µM
[10] = system: Leucine-rich repeat serine/threonine-protein kinase 2 (Homo sapiens), Q5S007 [G2019S]; assay: as §1; conditions: at 1 µM
[11] = molecular target: T2, Ephrin type-B receptor 1 (Homo sapiens) (UniProt P54762); assay: Selectivity interaction (KinomeScan (DiscoverX)) EUB0000666a EPHB1; conditions: at 10 µM
T2 sequence (whole entry): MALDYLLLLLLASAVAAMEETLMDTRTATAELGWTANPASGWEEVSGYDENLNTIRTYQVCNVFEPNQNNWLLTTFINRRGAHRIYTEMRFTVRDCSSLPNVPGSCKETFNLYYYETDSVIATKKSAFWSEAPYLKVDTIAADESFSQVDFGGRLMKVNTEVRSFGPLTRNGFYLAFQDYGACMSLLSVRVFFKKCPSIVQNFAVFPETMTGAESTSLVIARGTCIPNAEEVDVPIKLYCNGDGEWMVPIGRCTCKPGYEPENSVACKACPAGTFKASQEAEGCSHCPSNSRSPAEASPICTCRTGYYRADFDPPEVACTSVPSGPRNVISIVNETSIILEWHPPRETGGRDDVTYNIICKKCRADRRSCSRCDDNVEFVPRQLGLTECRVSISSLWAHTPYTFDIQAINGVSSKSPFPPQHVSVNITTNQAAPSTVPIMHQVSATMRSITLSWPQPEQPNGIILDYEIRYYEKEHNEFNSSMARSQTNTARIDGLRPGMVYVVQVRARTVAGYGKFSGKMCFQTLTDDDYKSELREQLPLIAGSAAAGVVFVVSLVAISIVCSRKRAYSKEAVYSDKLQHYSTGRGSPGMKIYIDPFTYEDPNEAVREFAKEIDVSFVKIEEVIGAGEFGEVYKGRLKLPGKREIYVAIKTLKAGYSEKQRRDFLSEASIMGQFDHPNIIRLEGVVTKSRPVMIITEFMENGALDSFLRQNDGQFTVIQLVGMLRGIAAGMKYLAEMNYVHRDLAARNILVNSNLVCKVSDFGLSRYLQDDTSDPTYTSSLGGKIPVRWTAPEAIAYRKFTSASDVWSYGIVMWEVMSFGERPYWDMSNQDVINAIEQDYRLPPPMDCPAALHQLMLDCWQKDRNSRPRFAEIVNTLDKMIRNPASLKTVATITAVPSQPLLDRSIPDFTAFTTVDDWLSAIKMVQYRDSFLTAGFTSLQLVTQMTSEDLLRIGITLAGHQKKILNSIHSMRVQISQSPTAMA

[12] = molecular target: RAC-alpha serine/threonine-protein kinase (Homo sapiens, UniProt P31749); assay: Selectivity interaction (Rxn Biology Kinase assay) EUB0001632a AKT1; conditions: at 10 µM
[13] = molecular target: Insulin receptor-related protein (Homo sapiens) (UniProt P14616); assay: Selectivity interaction (Kinase panel (Z-LYTE Assay)) EUB0001632a INSRR; conditions: at 10 µM
[14] = molecular target: Serine/threonine-protein kinase 10 (Homo sapiens) (UniProt O94804); assay: Selectivity interaction (KinomeScan (DiscoverX)) EUB0000695a STK10; conditions: at 100 nM
Chain of Serine/threonine-protein kinase 10 (Homo sapiens) (O94804 whole entry, looked up): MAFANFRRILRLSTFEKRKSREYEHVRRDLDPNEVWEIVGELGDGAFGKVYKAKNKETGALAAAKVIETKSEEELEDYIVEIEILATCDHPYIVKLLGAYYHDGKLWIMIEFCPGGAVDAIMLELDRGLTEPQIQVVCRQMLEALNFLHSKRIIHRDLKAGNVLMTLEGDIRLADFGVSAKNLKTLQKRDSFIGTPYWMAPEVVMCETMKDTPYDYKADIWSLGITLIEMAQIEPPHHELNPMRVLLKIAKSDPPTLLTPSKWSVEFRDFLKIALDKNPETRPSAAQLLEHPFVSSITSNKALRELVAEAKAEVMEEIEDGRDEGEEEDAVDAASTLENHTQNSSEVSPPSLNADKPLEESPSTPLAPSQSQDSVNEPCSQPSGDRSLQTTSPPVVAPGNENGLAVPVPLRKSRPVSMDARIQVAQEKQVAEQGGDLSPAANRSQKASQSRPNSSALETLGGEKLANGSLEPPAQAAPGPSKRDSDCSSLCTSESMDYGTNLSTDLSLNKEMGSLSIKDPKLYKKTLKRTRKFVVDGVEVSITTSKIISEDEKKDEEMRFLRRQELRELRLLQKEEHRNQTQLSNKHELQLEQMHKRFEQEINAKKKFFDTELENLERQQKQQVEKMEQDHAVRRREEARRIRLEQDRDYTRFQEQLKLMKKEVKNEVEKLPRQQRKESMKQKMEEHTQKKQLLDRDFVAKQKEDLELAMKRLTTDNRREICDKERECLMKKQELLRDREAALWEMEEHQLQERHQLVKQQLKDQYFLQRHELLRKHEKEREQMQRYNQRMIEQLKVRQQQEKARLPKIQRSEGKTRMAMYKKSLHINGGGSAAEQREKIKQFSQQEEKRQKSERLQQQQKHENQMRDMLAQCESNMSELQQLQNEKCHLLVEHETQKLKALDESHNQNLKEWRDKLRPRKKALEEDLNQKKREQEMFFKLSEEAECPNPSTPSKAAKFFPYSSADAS

Chain of Ribosomal protein S6 kinase alpha-2 (Homo sapiens) (Q15349 whole entry): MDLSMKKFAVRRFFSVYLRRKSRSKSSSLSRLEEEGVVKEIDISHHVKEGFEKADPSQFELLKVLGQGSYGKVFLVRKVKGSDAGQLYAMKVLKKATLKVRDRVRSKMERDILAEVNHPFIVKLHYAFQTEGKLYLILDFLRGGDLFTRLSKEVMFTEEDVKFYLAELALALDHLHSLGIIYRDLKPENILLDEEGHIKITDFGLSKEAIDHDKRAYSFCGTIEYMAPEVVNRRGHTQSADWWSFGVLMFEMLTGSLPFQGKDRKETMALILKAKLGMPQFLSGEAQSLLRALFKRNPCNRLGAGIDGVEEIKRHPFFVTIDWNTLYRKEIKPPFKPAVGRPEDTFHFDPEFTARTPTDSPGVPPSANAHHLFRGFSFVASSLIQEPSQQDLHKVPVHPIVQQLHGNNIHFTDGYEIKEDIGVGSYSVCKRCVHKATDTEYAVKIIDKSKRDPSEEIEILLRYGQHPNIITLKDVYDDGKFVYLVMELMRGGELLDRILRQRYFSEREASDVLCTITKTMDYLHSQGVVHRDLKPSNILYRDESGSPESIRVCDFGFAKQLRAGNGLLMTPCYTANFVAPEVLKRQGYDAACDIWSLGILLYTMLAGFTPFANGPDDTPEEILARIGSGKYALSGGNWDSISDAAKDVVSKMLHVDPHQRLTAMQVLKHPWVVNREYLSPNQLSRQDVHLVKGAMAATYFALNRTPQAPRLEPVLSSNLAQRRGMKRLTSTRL
Chain of Insulin receptor-related protein (Homo sapiens) (P14616 27-742 limits assumed): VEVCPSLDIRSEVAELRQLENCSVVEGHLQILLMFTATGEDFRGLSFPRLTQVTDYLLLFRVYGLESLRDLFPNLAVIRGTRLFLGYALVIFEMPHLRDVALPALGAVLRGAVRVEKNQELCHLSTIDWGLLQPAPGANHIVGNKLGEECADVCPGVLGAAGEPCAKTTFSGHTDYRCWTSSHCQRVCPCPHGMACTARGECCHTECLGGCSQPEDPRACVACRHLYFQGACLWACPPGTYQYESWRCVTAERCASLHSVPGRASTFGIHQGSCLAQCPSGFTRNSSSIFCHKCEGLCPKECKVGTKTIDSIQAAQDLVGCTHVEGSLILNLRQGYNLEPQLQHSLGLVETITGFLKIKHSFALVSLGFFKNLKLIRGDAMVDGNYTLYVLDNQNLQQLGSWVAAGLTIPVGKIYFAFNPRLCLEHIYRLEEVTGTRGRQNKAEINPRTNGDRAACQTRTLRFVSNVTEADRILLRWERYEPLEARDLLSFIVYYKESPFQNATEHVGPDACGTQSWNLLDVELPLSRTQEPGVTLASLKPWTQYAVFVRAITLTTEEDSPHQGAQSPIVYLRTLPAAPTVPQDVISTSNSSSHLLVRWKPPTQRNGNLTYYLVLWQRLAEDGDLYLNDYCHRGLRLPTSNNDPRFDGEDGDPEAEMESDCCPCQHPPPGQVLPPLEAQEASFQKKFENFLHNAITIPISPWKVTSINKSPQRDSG
Chain of Insulin receptor-related protein (Homo sapiens) (P14616 747-1297 limits assumed): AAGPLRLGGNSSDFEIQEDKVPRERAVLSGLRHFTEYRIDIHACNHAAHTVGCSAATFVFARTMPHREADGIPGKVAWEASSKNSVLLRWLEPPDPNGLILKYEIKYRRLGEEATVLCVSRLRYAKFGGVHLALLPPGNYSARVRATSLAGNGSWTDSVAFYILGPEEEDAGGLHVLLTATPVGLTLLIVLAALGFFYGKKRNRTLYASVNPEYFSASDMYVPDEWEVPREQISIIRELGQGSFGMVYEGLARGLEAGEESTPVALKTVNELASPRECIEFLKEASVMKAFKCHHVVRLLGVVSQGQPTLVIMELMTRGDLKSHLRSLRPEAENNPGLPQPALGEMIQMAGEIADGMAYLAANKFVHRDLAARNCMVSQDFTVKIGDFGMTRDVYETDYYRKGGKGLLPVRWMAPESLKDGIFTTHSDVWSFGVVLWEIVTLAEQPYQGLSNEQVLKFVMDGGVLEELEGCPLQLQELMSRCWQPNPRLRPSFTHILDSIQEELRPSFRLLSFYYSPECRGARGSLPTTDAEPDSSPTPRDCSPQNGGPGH
Chain of Serine/threonine-protein kinase 32C (Homo sapiens) (Q86UX6 whole entry): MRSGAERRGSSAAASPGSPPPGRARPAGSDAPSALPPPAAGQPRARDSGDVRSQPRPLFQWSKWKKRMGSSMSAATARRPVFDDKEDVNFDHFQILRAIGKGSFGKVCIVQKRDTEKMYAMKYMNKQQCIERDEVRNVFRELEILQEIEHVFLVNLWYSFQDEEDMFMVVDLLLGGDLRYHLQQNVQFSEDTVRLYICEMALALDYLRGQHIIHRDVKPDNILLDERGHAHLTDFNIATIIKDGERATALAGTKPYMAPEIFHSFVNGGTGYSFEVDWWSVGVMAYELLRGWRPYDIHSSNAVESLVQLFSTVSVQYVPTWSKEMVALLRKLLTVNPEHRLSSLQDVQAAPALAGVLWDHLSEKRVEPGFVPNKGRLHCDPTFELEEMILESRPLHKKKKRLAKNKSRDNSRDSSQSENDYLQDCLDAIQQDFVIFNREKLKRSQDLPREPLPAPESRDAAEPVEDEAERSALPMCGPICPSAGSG
Chain of RAF proto-oncogene serine/threonine-protein kinase (Homo sapiens) (P04049 whole entry): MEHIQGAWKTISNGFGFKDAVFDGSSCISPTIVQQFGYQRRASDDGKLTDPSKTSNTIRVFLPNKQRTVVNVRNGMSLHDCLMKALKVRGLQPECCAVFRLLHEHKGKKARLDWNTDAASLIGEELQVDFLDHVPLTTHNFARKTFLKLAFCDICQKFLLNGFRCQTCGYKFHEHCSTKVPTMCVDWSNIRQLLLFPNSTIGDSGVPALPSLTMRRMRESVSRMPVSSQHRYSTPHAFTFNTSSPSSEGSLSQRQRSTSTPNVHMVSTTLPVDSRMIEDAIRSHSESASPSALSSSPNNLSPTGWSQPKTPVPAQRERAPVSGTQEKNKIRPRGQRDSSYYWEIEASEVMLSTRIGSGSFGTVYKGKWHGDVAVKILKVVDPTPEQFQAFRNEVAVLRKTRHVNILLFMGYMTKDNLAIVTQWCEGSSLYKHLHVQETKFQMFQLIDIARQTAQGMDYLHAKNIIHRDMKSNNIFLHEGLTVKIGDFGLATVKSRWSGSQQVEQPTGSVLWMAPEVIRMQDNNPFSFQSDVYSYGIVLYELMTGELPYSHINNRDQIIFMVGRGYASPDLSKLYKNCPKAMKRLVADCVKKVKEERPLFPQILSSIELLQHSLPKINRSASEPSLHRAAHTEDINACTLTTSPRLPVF
Chain of Serine/threonine-protein kinase 24 (Homo sapiens) (Q9Y6E0 whole entry, looked up): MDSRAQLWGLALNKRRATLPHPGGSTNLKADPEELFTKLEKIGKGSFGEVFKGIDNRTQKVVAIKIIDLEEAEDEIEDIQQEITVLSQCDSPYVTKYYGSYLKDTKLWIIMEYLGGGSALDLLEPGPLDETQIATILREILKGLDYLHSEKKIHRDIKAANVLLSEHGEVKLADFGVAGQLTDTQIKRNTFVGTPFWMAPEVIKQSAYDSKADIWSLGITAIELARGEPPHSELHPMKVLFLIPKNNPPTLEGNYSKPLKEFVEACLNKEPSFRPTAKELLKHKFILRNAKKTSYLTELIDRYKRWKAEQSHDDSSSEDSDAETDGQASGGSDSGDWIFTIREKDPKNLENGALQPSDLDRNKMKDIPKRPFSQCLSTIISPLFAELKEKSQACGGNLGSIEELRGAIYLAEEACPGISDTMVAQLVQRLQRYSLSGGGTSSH
Chain of 5-hydroxytryptamine receptor 1E (Homo sapiens) (P28566 whole entry): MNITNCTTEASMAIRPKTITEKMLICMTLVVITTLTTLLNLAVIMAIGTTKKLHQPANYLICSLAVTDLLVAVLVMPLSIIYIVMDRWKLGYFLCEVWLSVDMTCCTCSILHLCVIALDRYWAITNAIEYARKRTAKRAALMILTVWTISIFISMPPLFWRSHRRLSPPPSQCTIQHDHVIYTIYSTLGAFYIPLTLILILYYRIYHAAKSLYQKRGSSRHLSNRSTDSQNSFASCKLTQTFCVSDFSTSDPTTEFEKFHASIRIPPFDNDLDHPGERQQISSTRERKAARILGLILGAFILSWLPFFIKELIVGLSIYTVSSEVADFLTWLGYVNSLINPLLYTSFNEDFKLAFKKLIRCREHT

In the case of CN(C)C/C=C/C(=O)Nc1ccc(C(=O)N2CCCC(Nc3ncc(Cl)c(-c4c[nH]c5ccccc45)n3)C2)cc1 (stereo not drawn), the % of control [1] is reported as 71% and the % of control [2] is reported as 40%.
For CN(C)CCOc1ccc(-c2nc(-c3ccncc3)c(-c3ccc4c(c3)CC/C4=N\O)[nH]2)cc1, the % of control [3] was 92%.
Nc1cnc(N2CCc3cc(S(=O)(=O)Nc4c(F)cc(Cl)cc4F)cc(N4CCCC4=O)c32)nc1 [TP-020n] showed a % of inhibition [4] of -4.55%.
Work on COCC(=O)NC/C=C/c1ccc2ncnc(Nc3ccc(Oc4ccc(C)nc4)c(C)c3)c2c1 [CP-724714] yielded a % of control [5] of 100%.
Compound CC[C@@H]1[C@H](F)C(=O)N[C@@H]1COc1nccc2cc(C(N)=O)c(OC)cc12 [ZIMLOVISERTIB] has a % of inhibition [6] of 3.2%, a % of inhibition ([7]; at 0.01 µM) of 16.9% and a % of inhibition ([7]; at 0.04 µM) of 12.4%. It also gave a % of inhibition ([7]; at 0.2 µM) of 10.3%, a % of inhibition ([7]; at 1 µM) of 8.6% and a % of inhibition ([7]; at 5 µM) of 11.7%.
For Cc1cc(CN)cc(C)c1-c1ncn(C)c1-c1cncn1C, the dTM [8] was -1.11 K.
COc1cc(N(C)c2ccnc3ccc(C(F)(F)F)cc23)cc(OC)c1OC showed a % binding [9] of 100% and a % binding [10] of 100%.
Work on O=C(NOC[C@H](O)CO)c1ccc(F)c(F)c1Nc1ccc(I)cc1F yielded a % of control [11] of 100%.
Work on Cn1cc(-n2cnc3c(NCc4nc5cc(Cl)c(Cl)cc5[nH]4)nc(N4CCOCC4)nc32)cn1 yielded a % of inhibition [12] of 0.245% and a % of control [13] of 0.348%.
With Cc1cc(F)c(C(=O)Nc2cccc(-c3nncn3C(C)C)n2)cc1-n1cnc(C2CC2)c1 the % of control [14] was 100%.
